From US20080262021A1, “1H-Imidazoquinoline Derivatives as Prote In Kinase Inhibitors” (NOVARTIS AG, priority 2003, published 2008)

Experiments:
ALK = biological target: T1, ALK (Homo sapiens, UniProt Q9UM73); assay: ALK tyrosine kinase inhibition (GST-ALK filter binding assay); assay type: biochemical; details: for IC50: read-out: IC50 Range Class, inhibition of ALK
T1 construct: using the recombinant kinase domain of the ALK in analogy to the VEGF-R kinase assay
Description: See Wood et al., Cancer Res, Vol. 60, No. 8, pp. 2178-2189 (2000). In vitro enzyme assays using GST-ALK protein tyrosine kinase are performed in 96-well plates as a filter binding assay in 20 mM tris-HCl, pH=7.5, 3 mM MgCl2, 10 mM MnCl2, 1 mM DTT, 0.1 μCi/assay (=30 μL) [γ-^33P]-ATP, 2 μM ATP, 3 μg/mL poly (Glu, Tyr 4:1) Poly-EY (Sigma P-0275), 1% DMSO, 25 ng ALK enzyme. Assays are incubated for 10 minutes at ambient temperature. Reactions are terminated by adding 50 μL of 125 mM EDTA, and the reaction mixture is transferred onto a MAIP Multiscreen plate (Millipore, Bedford, Mass., USA), previously wet with methanol, and re-hydrated for 5 minutes with H2O. Following washing (0.5% H3PO4), plates are counted in a liquid scintillation counter. IC50 values are calculated by linear regression analysis of the percentage inhibition. Compared with the control without inhibitor, the compounds of formula (I) inhibit the enzyme activity by 50% (IC50), e.g., in a concentration of from 0.001-0.5 μM, especially from […].

S6K1 = biological target: T2, S6K1 (Homo sapiens, UniProt P23443, T412E); assay: S6K1 kinase inhibition (S6K1ΔCT/T412E, TR-FRET); assay type: biochemical; details: read-out: IC50 Range Class, inhibition of S6K1
T2 construct: His (N); made in house; host or cells: Sf9 insect cells (baculovirus, pFastBacHT A), co-infected with GST-PDK1 virus
T2 sequence (P23443 1-421 T412E): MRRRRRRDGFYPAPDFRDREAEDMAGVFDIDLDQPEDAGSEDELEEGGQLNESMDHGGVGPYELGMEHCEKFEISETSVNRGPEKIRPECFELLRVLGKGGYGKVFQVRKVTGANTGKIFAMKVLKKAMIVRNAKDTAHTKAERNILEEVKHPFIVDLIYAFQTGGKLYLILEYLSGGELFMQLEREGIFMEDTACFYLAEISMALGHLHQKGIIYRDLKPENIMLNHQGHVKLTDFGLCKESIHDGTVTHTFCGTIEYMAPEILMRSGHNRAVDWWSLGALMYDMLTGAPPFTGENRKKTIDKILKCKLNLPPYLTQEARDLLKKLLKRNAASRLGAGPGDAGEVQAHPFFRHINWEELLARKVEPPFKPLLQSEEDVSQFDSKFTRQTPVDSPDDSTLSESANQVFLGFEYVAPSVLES
From the text: The DNA fragment encoding S6K1ΔCT/T412E is subcloned to the baculovirus donor vector pFastBacHT A to generate a recombinant baculovirus that expresses S6K1ΔCT/T412E. Transfer vectors for S6K1ΔCT/T412E are transfected into the DH10Bac cell line (GIBCO). After selection of white colonies, they are used for viral DNA (bacmid) preparation. Sf9 cells (American Type Culture Collection) cells are then transfected with the viral DNA using Cellfectin reagent. Virus-containing media is collected from the transfected cell culture and is used for infection to increase its titer. For large-scale protein expression, Sf9 cells are co-infected with S6K1ΔCT/T412E and GST-PDK1 virus-containing media with MOI of 2.25 and 1, respectively. After 3 days, the cells expressing the recombinant enzyme are resuspended in the culture medium with a sterilized cell scraper and harvested by centrifugation. The cells are resuspended in 5 volumes of cell pellet of Extraction Buffer (50 mM MOPS pH 7.0, containing 300 mM NaCl, 0.05% Tween-20, 10 mM sodium pyrophosphate, 50 mM β-glycerophosphate, 0.2 mM cantharidic acid and 1× complete-EDTA protease inhibitor cocktail) and then disrupted with 15 strokes of a Dounce homogenizer followed by sonication on ice. The homogenate is centrifuged at 4° C. for 60 minutes at 48,000×g. The supernatant is clarified with a 5 μm filter and subjected to purification with TALON Superflow Resin (Clontech). First, 1 mL of TALON resin per 5 mL of the supernatant was equilibrated with the Extraction Buffer and resuspended in the supernatant followed by gentle agitation for 20 minutes at RT. After centrifugation at 700×g for 5 minutes, supernatant is removed. The resin is washed twice by adding 10 bed volumes of the Extraction Buffer, agitating for 10 minutes at RT, centrifugating at 700×g for 5 minutes, and discarding the supernatant. The resin is then resuspended with the same volume of the Extraction Buffer and transferred to an disposable chromatography column. The packed column is washed once with 10 bed volumes of the Extraction Buffer and additionally with the same volume of Wash Buffer (5 mM imidazole in the Extraction Buffer). Then, the His-tagged S6K1ΔCT/T412E is eluted with four bed volumes of Elution Buffer (150 mM imidazole in the Extraction Buffer).
Measure of enzyme activity: The kinase assay with purified S6K1ΔCT/T412E is performed with TR-FRET (Time-Resolved Fluorescene Resonance Energy Transfer) technology. First, ATP-dependent phosphorylation of the biotinylated substrate peptide corresponding to residues 229-242 of S6 ribosomal protein (Biot-AKRRRLSSLRASTS) is carried out for 1 hour at 37° C. in […] under humidified air. The kinase reaction mixture of the final volume of 9 μL contains 2.57 ng of purified S6K1ΔCT/T412E protein, 50 mM MOPS (pH 7.0), 0.1 mM EGTA, 0.01 mM Na3VO4, 0.05% Tween-20, 0.01% BSA, 1 mM DTT, 10 mM MgCl2, 3 μM ATP, 0.5 μM biotinylated substrate peptide, 1% of DMSO or the text compounds of the formula (I) at the required concentration in 1% DMSO. For measurement of background, 20 mM of EDTA is added to the reaction mixture. […] Phosphorylated peptide indicative of kinase activity is quantitated by exciting the sample at 330 nm and comparing donor emission at 615 nm and acceptor emission at 665 nm by 2101 EnVision HTS multilabel plate reader (Perkin Elmer). […]

T1 sequence (Q9UM73 1116-1392 limits assumed): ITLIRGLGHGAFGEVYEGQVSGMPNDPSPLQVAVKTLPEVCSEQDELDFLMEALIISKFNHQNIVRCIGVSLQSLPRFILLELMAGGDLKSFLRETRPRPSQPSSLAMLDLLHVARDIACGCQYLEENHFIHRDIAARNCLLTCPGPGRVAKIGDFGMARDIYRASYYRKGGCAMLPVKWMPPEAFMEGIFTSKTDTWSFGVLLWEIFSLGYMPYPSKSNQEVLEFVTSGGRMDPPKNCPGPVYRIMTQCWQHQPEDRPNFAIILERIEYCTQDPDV

Row | Compound | IC50 (ALK) | IC50 (S6K1) | IC50 Range Class, inhibition of ALK (ALK)
1 | NCCc1ccc(-n2cnc3cnc4ccc(-c5ccc6[nH]ccc6c5)cc4c32)c(Cl)c1 [Example 11, 2-{3-Chloro-4-[8-(1H-indol-5-yl)-imidazo[4,5-c]quinolin-1-yl]-phenyl}-ethylamine] | ≤ 500 nM | ≤ 500 nM | 
2 | NCCc1ccc(-n2cnc3cnc4ccc(-c5ccc6[nH]ccc6c5)cc4c32)cc1F [Example 18, 2-{2-Fluoro-4-[8-(1H-indol-5-yl)-imidazo[4,5-c]quinolin-1-yl]-phenyl}-ethylamine] |  | ≤ 500 nM | B/A
3 | NCCCc1ccc(-n2cnc3cnc4ccc(-c5ccc6[nH]ccc6c5)cc4c32)c(Cl)c1 [Example 48, 3-{3-Chloro-4-[8-(1H-indol-5-yl)-imidazo[4,5-c]quinolin-1-yl]-phenyl}-propylamine] | ≤ 500 nM |  | 
